Values of other authors in patent US20240342244A1, “Isthmin Protein Therapeutics for the Treatment of Non-Alcoholic Fatty Liver Disease” (The Board of Trustees of the Leland Stanford Junior …, priority 2021, published 2024).

Test system: NAFLD mice
Conditions: daily injections at 30 mg/kg; after 14 days; cited from earlier work

SMILES: CC(C)c1onc(-c2c(Cl)cccc2Cl)c1COc1ccc(/C=C/c2cccc(C(=O)O)c2)c(Cl)c1 [GW4064]
- hepatic steatosis (previously shown): significantly reduce hepatic steatosis
